This is an account of results in patent US20040192625A1, “Adrenergic receptor overexpression in airway tissues for the treatment of airway obstructive diseases” (priority 2000, published 2004).

“And” between values parts separate entries of the source, which are not always exact repeats. Identical values can stand only once. “Also recorded” adds a separate entry of the source.

Series [1] has as its system airway responsiveness in conscious, unrestrained mice. In words: In vivo airway responsiveness to methacholine by whole body plethysmography (Penh). On the set-up: species or system mouse. Particulars: for maximal Penh to methacholine after albuterol pretreatment: aerosolized albuterol 0.1 mg/ml for 20 min; for maximal Penh (bronchoconstriction induced by methacholine): no pretreatment. As to the method: FIG. 9. In vivo measurement of airway hyperreactivity in conscious, unrestrained mice. Airway responsiveness to methacholine was assessed using a rodent whole body plethysmography system to measure Penh (see EXPERIMENTAL PROCEDURES). The mice were first treated with aerosolized PBS to establish baseline function, which was then followed by increasing doses of aerosolized methacholine. On a separate day, the same mice were first pretreated with aerosolized albuterol (0.1 mg/ml) for 20 min. Penh values are reported as percent of the PBS (baseline) value. Bronchoconstriction was greatest in the untreated, NTG control mice (n=12) with a maximal increase in Penh of 558±42%. Pretreatment with albuterol lowered the maximal increase in Penh to 373±33% (p<0.02). The maximum Penh achieved in the transgenic mice (250±26%, n=9) was less than that of both the untreated (p<0.001) and the pretreated NTG mice (p<0.02).
In Vivo Airway Physiology. Airway responsiveness to methacholine was measured noninvasively in conscious, unrestrained mice using a whole body plethysmograph (Buxco Electronics, Troy N.Y.) (28). Using this system, the volume changes that occur during a normal respiratory cycle are recorded as the pressure difference between the animal-containing chamber and a reference chamber. The resulting signal is used to calculate respiratory frequency, minute volume, tidal volume, and enhanced pause (Penh). Penh is a unitless value that is a function of the peak inspiratory (PIP) and peak expiratory (PEP) pressures and the timing of expiration and is calculated as: […]
where Pause is the ratio of time spent in the last third of expiration relative to early expiration. […] Mice were placed in the chamber and allowed to adjust to their surroundings for 10 min. They were then exposed to aerosolized PBS (to establish baseline), followed by increasing concentrations of methacholine (2.5 to 80 mg/ml). Aerosolization was for 3 min and respiratory measurements were recorded and averaged for the subsequent 5 min after each dose. The degree of bronchoconstriction was expressed as the percent change in Penh relative to the PBS baseline. On a separate day, the mice were submitted to the same protocol except that they were first treated with aerosolized albuterol (0.1 mg/ml) for 20 min. The concentration-response data for each individual mouse were fit to a sigmoid curve by an iterative least squares technique, and the dose of methacholine required to double baseline Penh (ED200) was derived.

For series [2], the target named is stimulatory guanine nucleotide binding protein (Gs) (mouse) (UniProt P63094). Put plainly: cell-based or functional assay.
Another series has as its system tracheal rings. Put plainly: Ex vivo tracheal ring contractility / relaxation (organ bath).
Another series deals with adenylyl cyclase. Put plainly: Adenylyl cyclase activity in tracheal smooth muscle cell membranes. Particulars: for maximal isoproterenol stimulated adenylyl cyclase activity: 10 μM isoproterenol, n=4. Type of series: biochemical, mouse. As to the method: (§1) FIG. 7. cAMP production and adenylyl cyclase activity in isolated tracheal smooth muscle cells. […] Results are from four independent experiments. (B) Adenylyl cyclase activity was measured in membranes prepared from tracheal smooth muscle cells of transgenic and nontransgenic mice. Reactions were carried out in the presence of the indicated concentrations of isoproterenol for 10 min at 37° C. Detection of [^32P]cAMP produced was determined by column chromatography. Shown is a representative dose response curve.
Radioligand Binding and cAMP Studies. To prepare membranes from lung tissue, lungs from an individual mouse were homogenized with a Polytron (Brinkman) in 10 ml of hypotonic lysis buffer (5 mM Tris, pH 7.4, 2 mM EDTA) containing the protease inhibitors leupeptin, aprotinin, benzamidine and soybean trypsin inhibitor (10 μg/ml each). Detached smooth muscle cells from primary cultures were processed similarly. Homogenates were centrifuged at 40,000×g for 10 min at 4° C. […] Competition data were fit to a two-site model when this fit was statistically (p<0.05) better than a one-site fit by F-test, using Prizm software (GraphPad, San Diego Calif.). Receptor density on the cell surface was assessed using methods previously described (24). […] After trypsin activity was neutralized by the addition of FCS, the cells were washed with PBS and resuspended in DMEM. […] Binding to receptors localized throughout the cell was defined as that displaced by propranolol, while cell surface binding was defined as that displaced by CGP12177 (24). Bound radioactivity was separated by filtration and washing over GF/C glass fiber filters. Cyclic AMP content of attached mouse smooth muscle cells in culture exposed to 10 µM isoproterenol or carrier for 10 min was measured by an acetylated radioimmunoassay method as described (19). Adenylyl cyclase activity was measured in membranes prepared as above using column chromatography as previously described (25).

In series [3] the target is β2AR (Mus musculus, UniProt P18762). As to the method: as §1
Radioligand Binding and cAMP Studies. To prepare membranes from lung tissue, lungs from an individual mouse were homogenized with a Polytron (Brinkman) in 10 ml of hypotonic lysis buffer (5 mM Tris, pH 7.4, 2 mM EDTA) containing the protease inhibitors leupeptin, aprotinin, benzamidine and soybean trypsin inhibitor (10 μg/ml each). […] Receptor density on the cell surface was assessed using methods previously described (24). […] Bound radioactivity was separated by filtration and washing over GF/C glass fiber filters. Cyclic AMP content of attached mouse smooth muscle cells in culture exposed to 10 µM isoproterenol or carrier for 10 min was measured by an acetylated radioimmunoassay method as described (19). Adenylyl cyclase activity was measured in membranes prepared as above using column chromatography as previously described (25).

In series [4] the test system is β2AR. Particulars: membranes from nontransgenic cells, absence of GTP. As to the method:
Radioligand Binding and cAMP Studies. To prepare membranes from lung tissue, lungs from an individual mouse were homogenized with a Polytron (Brinkman) in 10 ml of hypotonic lysis buffer (5 mM Tris, pH 7.4, 2 mM EDTA) containing the protease inhibitors leupeptin, aprotinin, benzamidine and soybean trypsin inhibitor (10 μg/ml each). Detached smooth muscle cells from primary cultures were processed similarly. Homogenates were centrifuged at 40,000×g for 10 min at 4° C. […] Competition data were fit to a two-site model when this fit was statistically (p<0.05) better than a one-site fit by F-test, using Prizm software (GraphPad, San Diego Calif.). Receptor density on the cell surface was assessed using methods previously described (24). […] After trypsin activity was neutralized by the addition of FCS, the cells were washed with PBS and resuspended in DMEM. […] Bound radioactivity was separated by filtration and washing over GF/C glass fiber filters. Cyclic AMP content of attached mouse smooth muscle cells in culture exposed to 10 µM isoproterenol or carrier for 10 min was measured by an acetylated radioimmunoassay method as described (19). Adenylyl cyclase activity was measured in membranes prepared as above using column chromatography as previously described (25).

Sequence of β2AR (Mus musculus, UniProt P18762) (P18762 whole entry): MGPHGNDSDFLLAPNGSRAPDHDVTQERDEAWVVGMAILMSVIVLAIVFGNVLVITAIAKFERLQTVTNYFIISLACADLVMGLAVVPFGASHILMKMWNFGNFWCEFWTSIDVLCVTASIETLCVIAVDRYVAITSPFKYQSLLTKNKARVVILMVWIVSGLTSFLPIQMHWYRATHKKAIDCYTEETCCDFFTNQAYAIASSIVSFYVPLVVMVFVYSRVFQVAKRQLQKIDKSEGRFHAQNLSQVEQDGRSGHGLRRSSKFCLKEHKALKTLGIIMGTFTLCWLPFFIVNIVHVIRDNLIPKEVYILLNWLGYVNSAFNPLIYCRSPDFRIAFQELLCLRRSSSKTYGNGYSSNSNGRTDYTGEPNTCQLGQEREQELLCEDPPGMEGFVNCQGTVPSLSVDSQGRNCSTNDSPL
Sequence of stimulatory guanine nucleotide binding protein (Gs) (mouse) (P63094 2-394): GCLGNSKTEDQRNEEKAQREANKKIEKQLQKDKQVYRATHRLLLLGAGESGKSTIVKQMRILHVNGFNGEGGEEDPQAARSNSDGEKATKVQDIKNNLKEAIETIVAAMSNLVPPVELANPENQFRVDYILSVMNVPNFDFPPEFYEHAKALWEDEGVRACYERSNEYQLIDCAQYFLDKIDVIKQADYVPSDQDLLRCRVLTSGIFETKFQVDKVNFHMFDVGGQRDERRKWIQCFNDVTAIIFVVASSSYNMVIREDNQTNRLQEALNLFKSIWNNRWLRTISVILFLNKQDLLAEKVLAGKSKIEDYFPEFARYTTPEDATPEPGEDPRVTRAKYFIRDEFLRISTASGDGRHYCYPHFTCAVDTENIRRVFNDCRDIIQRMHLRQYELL
Method for tracheal rings: Ex vivo assessment of airway function in transgenic and nontransgenic mice. Tracheal contractility was measured using ring preparations that were mounted on wires connected to pressure transducers and immersed in organ baths. The absolute contractile force evoked by acetylcholine is shown in (A). […] Rings were pre-contracted to the same extent with 10 μM acetylcholine for these studies. […] Curves shown represent the mean±SE of data generated from four different mice in each group.
Ex vivo Smooth Muscle Studies. […] Briefly, tracheas were excised and dissected free of surrounding tissues and cut into rings of approximately 5 mm in length. The trachea rings were mounted on stainless steel wires connected to isometric force transducers. […] Each tracheal ring was stretched to a tension of 5 mN, an optimal passive tension for maximizing active force (27). After a 20 min equilibration period, contraction/relaxation cycles with 10 μM acetylcholine were performed until consistent forces were observed. Cumulative concentration-isometric force curves were then generated to acetylcholine (1 nM-30 μM). After rinsing, tracheas were contracted with 10 μM acetylcholine (approximately the ED80) and cumulative concentration-relaxation curves were generated to isoproterenol (30 pM-10 μM). Concentration-response relations were fitted to a logistic equation (26).

Turning to `CC(C)(C)NCC(O)c1ccc(O)c(CO)c1` (stereo not drawn) [albuterol], the “methacholine-induced increase in Penh after albuterol pretreatment” value in series [1] (SMP8-β2AR mice, methacholine up to 80 mg/ml) is reported as “no increase in Penh; also recorded: no methacholine-induced bronchoconstriction was observed”. The “maximal Penh to methacholine after albuterol pretreatment” value in series [1] (SMP8-β2AR transgenic mice) is 146±12 % of baseline and 138±11 % of baseline; in series [1] (nontransgenic mice), 373±33 % of baseline.

In the case of “endogenous β-adrenergic receptor of tracheal smooth muscle cells from nontransgenic mice (from UniProt P18762 1-418)”, the proportion of receptors in the high affinity state (% RH), isoproterenol competition of [125I]CYP binding in the absence of GTP in series [2] is 36%.

Regarding `Cc1ccc(OCC(O)C(C)NC(C)C)c2c1CCC2` (stereo not drawn) [ICI 118,551], the “effect on enhanced isoproterenol-induced relaxation in SMP8-β2AR mice” value in the series on tracheal rings (pretreatment 0.1 μM) was “blocked; also recorded: abolished”.

In the case of `CC(C)NCC(O)c1ccc(O)c(O)c1` (stereo not drawn) [isoproterenol], in the series with adenylyl cyclase (nontransgenic membranes), the “percent isoproterenol stimulation of adenylyl cyclase over basal” value is listed as around 46% and the “maximal isoproterenol stimulated adenylyl cyclase activity” value turned out to be 251 ± 7.3 pmol/min/mg. Moreover, in the series with adenylyl cyclase (transgenic membranes), the “percent isoproterenol stimulation of adenylyl cyclase over basal” value is recorded as around 125% and the “maximal isoproterenol stimulated adenylyl cyclase activity” value turned out to be 609 ± 74.7 pmol/min/mg. For the same molecule, the “maximal extent of relaxation, transgenic vs nontransgenic rings” value in the series with tracheal rings (isoproterenol, rings pre-constricted with 10 μM acetylcholine) is on record as “equivalent”. Besides, the “isoproterenol-stimulated cAMP content” value at β2AR [3] (nontransgenic airway smooth muscle cells, 10 min, n=5) came out at 2.05 ± 0.10 pmol/mL. Moreover, on β2AR [3] (nontransgenic cells), the “isoproterenol-stimulated cAMP, percent-stimulation over basal” value is listed as around 50%. Moreover, the “proportion of receptors in the high affinity state (% RH)” value with β2AR [4] worked out at 36±6.7%. In addition, in series [1] (SMP8-β2AR transgenic mice, isoproterenol by osmotic minipump for three continuous days), the “maximal Penh to methacholine after acute albuterol in mice pretreated with isoproterenol” value is on record as 128±1 % of baseline.

As to `CC(=O)OC(C)C[N+](C)(C)C` (stereo not drawn) [methacholine], the “maximal Penh (bronchoconstriction induced by methacholine)” value is listed as 250±26 % of baseline in series [1] (SMP8-β2AR transgenic mice, n=9) and 558±42 % of baseline in series [1] (nontransgenic mice, n=12). The “ED200 (dose of methacholine required to double baseline Penh)” value is 35.7 ± 10.6 mg/mL in series [1] (SMP-β2AR mice) and 12.1 ± 1.90 mg/mL in series [1] (nontransgenic mice).
